# Reference: PMC4591937 (Science translational medicine, 2015)
# Columns and labels:
# [1] = Drug distribution / pharmacokinetics in OVX rats; type: in vivo, rat
# [2] = system: ERE-luciferase reporter under transcriptional control of ERs; test: Bioluminescence imaging in OVX repTOP ERE-Luc mice; type: in vivo, mouse; conditions: DHED s.c. or p.o. ≥200 μg/kg; E2 s.c. 20 μg/kg
# [3] = system: lipid peroxidation; test: Inhibition of lipid peroxidation, ferric thiocyanate; type: biochemical; conditions: average ± SEM, n = 3
# [4] = system: ERα in MCF-7Ca cells; test: ERα transactivation in MCF-7Ca breast cancer cells; type: cell-based, human; conditions: cultured MCF-7Ca cells, 1 nM
# [5] = Binding to human plasma proteins by rapid equilibrium dialysis; type: in vitro ADME
# [6] = system: lipid peroxidation; test: Inhibition of lipid peroxidation, thiobarbituric acid reactive substances; type: biochemical; conditions: average ± SEM, n = 3
# [7] = system: uterus of OVX rodents; type: in vivo; conditions: for Vaginal smear cytology during and after treatment: OVX rats
# [8] = system: human MCF7-Ca xenografts; test: MCF-7Ca xenograft growth in nude mice; type: in vivo, mouse; conditions: 100 μg/kg s.c. daily for 8 weeks
# [9] = biological target: T1, ERα (Homo sapiens, UniProt P03372); test: Estrogen receptor; type: binding
# T1 sequence (P03372 1-595): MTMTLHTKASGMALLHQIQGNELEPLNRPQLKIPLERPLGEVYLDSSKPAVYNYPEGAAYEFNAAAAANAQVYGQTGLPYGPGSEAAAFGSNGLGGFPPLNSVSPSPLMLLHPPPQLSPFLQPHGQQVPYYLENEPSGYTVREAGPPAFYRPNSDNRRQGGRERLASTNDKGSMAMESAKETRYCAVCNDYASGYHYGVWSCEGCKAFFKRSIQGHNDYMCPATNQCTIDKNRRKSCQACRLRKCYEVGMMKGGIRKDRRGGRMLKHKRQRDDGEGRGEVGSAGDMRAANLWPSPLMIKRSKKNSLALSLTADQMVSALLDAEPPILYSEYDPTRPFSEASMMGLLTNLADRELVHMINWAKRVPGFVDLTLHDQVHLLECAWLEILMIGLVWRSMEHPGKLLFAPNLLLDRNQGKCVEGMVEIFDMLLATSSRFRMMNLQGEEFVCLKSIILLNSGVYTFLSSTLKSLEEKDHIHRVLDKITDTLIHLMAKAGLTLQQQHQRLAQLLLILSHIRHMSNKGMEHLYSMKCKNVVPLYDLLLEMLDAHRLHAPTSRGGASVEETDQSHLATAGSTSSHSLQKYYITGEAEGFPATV
# [10] = system: CD1 mice; test: Forced swim test; type: in vivo, mouse
# [11] = physchem
# [12] = biological target: ERβ (Homo sapiens, UniProt Q92731); test: Estrogen receptor; type: binding
# [13] = system: OVX rat; test: OVX rat hot flush model; type: in vivo; conditions: p.o. 30 μg/kg
# [14] = system: OVX Sprague-Dawley rats; test: Transient middle cerebral artery occlusion; type: in vivo, rat
# [15] = system: OVX rat brain; test: Markers of estrogenic effects in the brain; type: in vivo; conditions: for Progesterone receptor (PR) expression in the preoptic area of the hypothalamus: OVX Sprague-Dawley rats, DHED s.c. 50 μg/kg, ICI 182,780 s.c. 1 mg/kg 1 h before DHED
# [16] = system: middle-aged OVX Fisher-344 rats; test: Delay match-to-sample plus maze test; type: in vivo, rat; conditions: continuous s.c. minipump 4 μg daily, 48 days, versus control
# [17] = 0.8 to 100 μg/kg s.c. 1 h before tMCAO
# ERβ, sequence (Q92731 whole entry, species assumed): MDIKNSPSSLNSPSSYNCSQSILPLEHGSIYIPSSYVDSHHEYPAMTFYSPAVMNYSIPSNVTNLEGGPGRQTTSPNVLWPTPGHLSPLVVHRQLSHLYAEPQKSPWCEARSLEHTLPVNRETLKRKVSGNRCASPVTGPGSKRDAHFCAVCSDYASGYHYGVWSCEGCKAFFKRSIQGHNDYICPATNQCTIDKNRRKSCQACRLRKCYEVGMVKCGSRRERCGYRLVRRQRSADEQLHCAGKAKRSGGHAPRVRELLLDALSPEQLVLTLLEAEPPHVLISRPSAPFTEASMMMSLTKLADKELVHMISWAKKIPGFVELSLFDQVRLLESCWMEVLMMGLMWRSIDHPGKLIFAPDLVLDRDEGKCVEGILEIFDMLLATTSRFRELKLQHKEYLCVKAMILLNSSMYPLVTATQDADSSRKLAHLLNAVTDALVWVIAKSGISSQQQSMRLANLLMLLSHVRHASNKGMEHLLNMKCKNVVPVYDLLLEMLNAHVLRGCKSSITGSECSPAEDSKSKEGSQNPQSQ
compound,measurement,setting,value
"16,16,17-d3-DHED",Site of labelled E2 formation from deuterated prodrug,"[1]; OVX Sprague-Dawley rats, i.v., tissue 15 min post-dosing",d3-E2 was produced exclusively in the brain
"C[C@]12CC[C@@H]3c4ccc(O)cc4CC[C@H]3[C@@H]1CC[C@@H]2O [Compound E2, 17β-estradiol, reference compound]",ERE reporter activation / bioluminescence in peripheral tissues,[2],significant increase of photon emission from the hepatic area
same,IC50,"[3]; read-out: Inhibition of lipid peroxidation: IC50, FTC",11.8 ± 1.6 µM
same,ERα transactivation,[4],induced the expected cancer-promoting ERα transactivation
same,Binding to human plasma proteins,"[5]; average ± SEM, n = 3",97.8 ± 0.3%
same,IC50,"[6]; read-out: Inhibition of lipid peroxidation: IC50, TBARS",3.9 ± 0.4 µM
same,Vaginal smear cytology during and after treatment,[7],vaginal smears with many cornified cells
"C[C@]12CC[C@H]3[C@@H](CCC4=CC(=O)C=C[C@@]43O)[C@@H]1CC[C@@H]2O [DHED, 10β,17β-dihydroxyestra-1,4-dien-3-one]",ERE reporter activation / bioluminescence in peripheral tissues,[2],did not activate the ERE reporter construct
same,Growth of aromatase-transfected MCF-7Ca xenografts,[8],did not stimulate the growth
same,IC50,[9],> 10 µM
same,Antidepressant-like activity in the FST,"[10]; 10 μg/kg s.c. daily for 5 days, 1 h after last injection",outperformed direct administration of E2
same,solubility,[11],60.3 ± 1.7 µg/mL
same,"Inhibition of lipid peroxidation: IC50, FTC",[3],n.i.
same,Binding to human plasma proteins,[5]; human,58.0 ± 0.6%
same,IC50,[12],> 10 µM
same,Prodrug level in the brain,[1]; OVX rats after systemic dosing,did not detect DHED in the brain
same,Oral absorption,"[1]; PK studies of E2 in brain and serum, p.o. (table S1)",complete absorption after oral administration
same,half-life,"[1]; female, Sprague-Dawley, rat, serum, iv, 200 ug/kg",5.1 ± 0.6 min
same,Tail-skin temperature rise,[13],blunted the tail-skin temperature rise
same,"Inhibition of lipid peroxidation: IC50, TBARS",[6],n.i.
same,Neuroprotection with post-infarct treatment,[14]; 100 μg/kg s.c. after tMCAO,had a neuroprotective effect
same,Infarct volume,[14]; [17],dose-dependent reduction of the infarct volumes
same,Neurological deficits (ND score),[14]; [17],attenuation of neurological deficits
same,Expression of estrogen-regulated uterine proteins,"[7]; OVX Swiss-Webster mice, 50 μg/kg s.c. daily for 5 days, versus control",no changes in the expression
same,Vaginal smear cytology during and after treatment,[7],remained continuously in diestrus
same,Wet uterus weight gain (uterotrophic effect),"[7]; OVX rodents, i.v., s.c., p.o. or 48-day s.c. minipump",did not result in wet uterus weight gain
same,ChAT-IR stereological cell counts in medial septum and vertical diagonal band,"[15]; OVX Fischer 344 rats, 4 μg/day s.c. pumps, 48 days",increased choline acetyltransferase immunoreactive (ChAT-IR) stereological cell counts
same,Dendritic spines and spine heads in hippocampal CA1 neurons,"[15]; OVX Fischer 344 rats, 10 μg s.c. every four days for 40 days",increased the number of dendritic spines and spine heads
same,Progesterone receptor (PR) expression in the preoptic area of the hypothalamus,[15],stimulated progesterone receptor (PR) expression
same,Working memory errors,[16],significantly decreased working memory errors
"C[C@]12CC[C@@H]3c4ccc(O)cc4C[C@@H](CCCCCCCCC[S+]([O-])CCCC(F)(F)C(F)(F)F)[C@H]3[C@@H]1CC[C@@H]2O (stereo partly shown) [ICI 182,780]",Effect of ER antagonist on antidepressant-like effect of E2 and DHED,"[10]; 4 mg/kg s.c. co-injected with E2 or DHED 50 μg/kg s.c., 5 days",completely blocked this antidepressant-like effect
same,Brain concentration by LC-MS/MS,"[10]; 15 min after completion of the FST, systemic dosing",6.6 ±0.9 ng/g tissue
same,Progesterone receptor (PR) expression in the preoptic area of the hypothalamus,[15],abolished the effect of DHED treatment on PR induction
"C[C@]12CCC(=O)C=C1CC[C@@H]1[C@@H]2CC[C@]2(C)C(=O)CC[C@@H]12 [Δ^4A, Δ^4-androstenedione]",ERα transactivation,[4],induced the expected cancer-promoting ERα transactivation
